This note sets out measurements from ChEMBL document CHEMBL1201862, “PubChem BioAssay data set” (2004).

Activity calls are given as the source filed them.

Holding throughout (format): functional
Assay [1] concerns the target DNA dC->dU-editing enzyme APOBEC-3A (Homo sapiens, UniProt P31941). The experiment in a line: SAR analysis of small molecule inhibitors of APOBEC3A DNA Deaminase via a fluorescence-based single-stranded DNA deaminase assay - Set 2. The note with it: read-out: IC50_Mean.
Assay [2] concerns the target DNA dC->dU-editing enzyme APOBEC-3G (Homo sapiens, UniProt Q9HC16). Nature of the assay: SAR analysis of small molecule inhibitors of APOBEC3G DNA Deaminase via a fluorescence-based single-stranded DNA deaminase assay - Set 2. The note with it: read-out: IC50_Mean.
For assay [3], the target named is Dual specificity protein kinase CLK2 (Homo sapiens, UniProt P49760).
Assay [4] addresses Serine/threonine-protein kinase D3 (Homo sapiens, UniProt O94806).
A further assay concerns the target Activin receptor type-1 (Homo sapiens, UniProt Q04771). Nature of the assay: Navigating the Kinome. Panel member name: ACVR1.
Assay [5] addresses Serine/threonine-protein kinase PAK 4 (Homo sapiens, UniProt O96013).
Assay [6] deals with Fibroblast growth factor receptor 1 (Homo sapiens, UniProt P11362).
In assay [7] the target is Casein kinase I isoform alpha (Homo sapiens, UniProt P48729).
Assay [8] deals with Tyrosine-protein kinase JAK3 (Homo sapiens, UniProt P52333).
A further assay concerns the target LIM domain kinase 1 (Homo sapiens, UniProt P53667). The experiment in a line: Navigating the Kinome. Panel member name: LIMK1.
The target of assay [9] is Glycogen synthase kinase-3 alpha (Homo sapiens, UniProt P49840).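 Also: GSK3A result taken from a broad kinome-wide kinase panel.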
Assay [10] concerns the target G protein-coupled receptor kinase 5 (Homo sapiens, UniProt P34947). The experiment in a line: Navigating the Kinome. Panel member name: GPRK5.
The target in assay [11] is Dual specificity tyrosine-phosphorylation-regulated kinase 1B (Homo sapiens, UniProt Q9Y463). The experiment in a line: Navigating the Kinome. Panel member name: DYRK1B.
For another assay, the target named is Aurora kinase B (Homo sapiens, UniProt Q96GD4).
For assay [12], the target named is Cyclin-dependent kinase 7 (Homo sapiens, UniProt P50613).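 Also: value comes from a kinome-wide kinase profiling panel in which CDK7 is one member.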
Assay [13] addresses Dual specificity protein kinase CLK4 (Homo sapiens, UniProt Q9HAZ1).
Assay [14] has as its target Dual specificity tyrosine-phosphorylation-regulated kinase 1A (Homo sapiens, UniProt Q13627).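 Also: measured against DYRK1A as one member of a broad kinome profiling panel.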
Assay [15] concerns the target Calcium/calmodulin-dependent protein kinase type II subunit alpha (Homo sapiens, UniProt Q9UQM7). Nature of the assay: Navigating the Kinome. Panel member name: CAMK2A.
Assay [16] addresses Mitogen-activated protein kinase 14 (Homo sapiens, UniProt Q16539).

Chain of DNA dC->dU-editing enzyme APOBEC-3A (P31941 whole entry): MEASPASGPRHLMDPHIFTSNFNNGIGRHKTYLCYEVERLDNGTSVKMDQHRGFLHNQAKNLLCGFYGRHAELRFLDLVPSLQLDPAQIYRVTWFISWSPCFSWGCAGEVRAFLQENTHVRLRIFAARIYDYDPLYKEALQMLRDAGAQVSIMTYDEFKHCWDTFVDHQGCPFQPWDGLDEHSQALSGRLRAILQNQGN
Chain of Serine/threonine-protein kinase PAK 4 (O96013 whole entry): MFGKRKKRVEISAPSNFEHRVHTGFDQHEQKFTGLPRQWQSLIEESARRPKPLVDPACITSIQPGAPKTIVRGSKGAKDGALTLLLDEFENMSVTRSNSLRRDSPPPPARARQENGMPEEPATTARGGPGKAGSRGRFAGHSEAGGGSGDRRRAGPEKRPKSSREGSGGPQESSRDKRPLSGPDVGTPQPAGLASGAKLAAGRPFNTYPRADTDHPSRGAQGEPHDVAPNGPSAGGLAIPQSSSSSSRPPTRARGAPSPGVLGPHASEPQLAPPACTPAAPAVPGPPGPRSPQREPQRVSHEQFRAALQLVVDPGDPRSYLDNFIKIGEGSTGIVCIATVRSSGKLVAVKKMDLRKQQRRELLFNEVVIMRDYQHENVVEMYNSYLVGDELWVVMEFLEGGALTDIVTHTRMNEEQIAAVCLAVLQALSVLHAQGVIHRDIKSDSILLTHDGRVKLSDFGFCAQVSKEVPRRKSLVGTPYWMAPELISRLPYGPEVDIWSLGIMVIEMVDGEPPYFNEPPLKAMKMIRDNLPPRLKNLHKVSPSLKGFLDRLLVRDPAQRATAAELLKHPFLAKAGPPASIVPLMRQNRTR
Chain of Glycogen synthase kinase-3 alpha (P49840 whole entry): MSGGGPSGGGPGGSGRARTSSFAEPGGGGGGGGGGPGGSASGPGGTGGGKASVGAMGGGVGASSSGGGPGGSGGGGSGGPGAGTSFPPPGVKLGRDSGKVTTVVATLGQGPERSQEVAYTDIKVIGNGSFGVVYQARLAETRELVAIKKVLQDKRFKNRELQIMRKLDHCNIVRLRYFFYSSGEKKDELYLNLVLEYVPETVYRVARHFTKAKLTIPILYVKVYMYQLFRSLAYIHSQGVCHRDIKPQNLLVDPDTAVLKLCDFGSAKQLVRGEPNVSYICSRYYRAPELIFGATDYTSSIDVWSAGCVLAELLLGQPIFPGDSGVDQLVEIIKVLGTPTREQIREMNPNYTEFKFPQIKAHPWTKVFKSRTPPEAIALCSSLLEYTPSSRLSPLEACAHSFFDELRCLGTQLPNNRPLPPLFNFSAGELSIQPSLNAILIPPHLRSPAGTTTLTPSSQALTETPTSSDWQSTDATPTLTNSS
Chain of Dual specificity protein kinase CLK4 (Q9HAZ1 whole entry): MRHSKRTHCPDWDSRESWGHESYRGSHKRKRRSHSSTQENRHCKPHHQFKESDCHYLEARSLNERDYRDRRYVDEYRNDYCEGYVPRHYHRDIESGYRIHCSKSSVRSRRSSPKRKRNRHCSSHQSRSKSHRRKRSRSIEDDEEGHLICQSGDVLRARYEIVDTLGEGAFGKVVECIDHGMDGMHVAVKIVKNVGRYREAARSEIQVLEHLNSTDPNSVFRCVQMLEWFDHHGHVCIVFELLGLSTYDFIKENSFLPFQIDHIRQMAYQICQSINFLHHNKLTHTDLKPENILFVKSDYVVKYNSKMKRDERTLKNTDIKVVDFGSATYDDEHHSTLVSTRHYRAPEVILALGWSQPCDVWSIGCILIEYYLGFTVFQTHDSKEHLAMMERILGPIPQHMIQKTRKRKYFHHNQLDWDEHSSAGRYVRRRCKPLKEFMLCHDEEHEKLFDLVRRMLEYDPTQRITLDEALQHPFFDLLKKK
Chain of Serine/threonine-protein kinase D3 (O94806 whole entry): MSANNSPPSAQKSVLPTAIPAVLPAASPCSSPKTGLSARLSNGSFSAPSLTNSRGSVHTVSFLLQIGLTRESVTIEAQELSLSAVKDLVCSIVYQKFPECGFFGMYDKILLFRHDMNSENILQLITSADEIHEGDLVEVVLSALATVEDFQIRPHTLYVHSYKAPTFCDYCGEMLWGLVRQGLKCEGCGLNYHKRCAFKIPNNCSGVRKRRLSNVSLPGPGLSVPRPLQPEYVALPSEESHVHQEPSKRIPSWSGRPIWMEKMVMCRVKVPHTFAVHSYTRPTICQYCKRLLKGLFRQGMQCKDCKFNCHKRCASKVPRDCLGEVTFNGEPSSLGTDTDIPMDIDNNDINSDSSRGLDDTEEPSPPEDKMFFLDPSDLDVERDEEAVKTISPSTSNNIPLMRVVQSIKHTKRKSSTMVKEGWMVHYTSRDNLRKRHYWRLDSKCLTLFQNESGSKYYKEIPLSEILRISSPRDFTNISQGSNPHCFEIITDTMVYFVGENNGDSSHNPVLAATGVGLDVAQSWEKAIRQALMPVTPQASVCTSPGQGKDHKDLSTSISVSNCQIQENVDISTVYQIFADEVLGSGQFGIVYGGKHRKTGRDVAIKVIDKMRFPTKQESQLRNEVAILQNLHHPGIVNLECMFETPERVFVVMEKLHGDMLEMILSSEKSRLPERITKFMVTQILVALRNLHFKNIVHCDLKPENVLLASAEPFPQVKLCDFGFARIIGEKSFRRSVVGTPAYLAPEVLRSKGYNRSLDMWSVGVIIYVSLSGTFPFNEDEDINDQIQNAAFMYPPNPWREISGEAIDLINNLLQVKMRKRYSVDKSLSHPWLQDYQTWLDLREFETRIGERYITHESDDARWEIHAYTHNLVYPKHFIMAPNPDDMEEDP
Chain of Aurora kinase B (Q96GD4 whole entry): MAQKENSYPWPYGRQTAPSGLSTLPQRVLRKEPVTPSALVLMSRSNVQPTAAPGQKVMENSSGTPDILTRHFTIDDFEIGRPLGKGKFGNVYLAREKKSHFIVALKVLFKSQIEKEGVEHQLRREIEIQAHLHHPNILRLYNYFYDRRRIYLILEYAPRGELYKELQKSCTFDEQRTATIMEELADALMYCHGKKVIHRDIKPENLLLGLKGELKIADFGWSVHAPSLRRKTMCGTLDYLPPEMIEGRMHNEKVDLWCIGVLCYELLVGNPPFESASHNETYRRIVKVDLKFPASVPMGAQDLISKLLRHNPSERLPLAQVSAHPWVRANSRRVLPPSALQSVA
Chain of G protein-coupled receptor kinase 5 (P34947 whole entry): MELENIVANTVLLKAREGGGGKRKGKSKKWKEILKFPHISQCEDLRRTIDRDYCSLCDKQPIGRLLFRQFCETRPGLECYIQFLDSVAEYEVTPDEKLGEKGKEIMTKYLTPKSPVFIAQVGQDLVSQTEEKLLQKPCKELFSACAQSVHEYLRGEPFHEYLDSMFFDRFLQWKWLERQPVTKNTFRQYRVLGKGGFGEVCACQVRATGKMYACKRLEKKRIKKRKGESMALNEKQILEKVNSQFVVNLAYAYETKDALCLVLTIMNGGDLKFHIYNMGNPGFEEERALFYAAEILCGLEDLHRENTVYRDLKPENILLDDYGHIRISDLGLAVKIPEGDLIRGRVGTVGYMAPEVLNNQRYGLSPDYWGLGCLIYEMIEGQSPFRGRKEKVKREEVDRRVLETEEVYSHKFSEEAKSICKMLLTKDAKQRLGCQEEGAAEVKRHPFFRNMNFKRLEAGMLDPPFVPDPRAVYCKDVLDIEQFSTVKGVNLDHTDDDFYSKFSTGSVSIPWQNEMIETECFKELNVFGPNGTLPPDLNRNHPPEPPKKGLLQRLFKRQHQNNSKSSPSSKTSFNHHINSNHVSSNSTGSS
Chain of LIM domain kinase 1 (P53667 whole entry, the tested form may be a part): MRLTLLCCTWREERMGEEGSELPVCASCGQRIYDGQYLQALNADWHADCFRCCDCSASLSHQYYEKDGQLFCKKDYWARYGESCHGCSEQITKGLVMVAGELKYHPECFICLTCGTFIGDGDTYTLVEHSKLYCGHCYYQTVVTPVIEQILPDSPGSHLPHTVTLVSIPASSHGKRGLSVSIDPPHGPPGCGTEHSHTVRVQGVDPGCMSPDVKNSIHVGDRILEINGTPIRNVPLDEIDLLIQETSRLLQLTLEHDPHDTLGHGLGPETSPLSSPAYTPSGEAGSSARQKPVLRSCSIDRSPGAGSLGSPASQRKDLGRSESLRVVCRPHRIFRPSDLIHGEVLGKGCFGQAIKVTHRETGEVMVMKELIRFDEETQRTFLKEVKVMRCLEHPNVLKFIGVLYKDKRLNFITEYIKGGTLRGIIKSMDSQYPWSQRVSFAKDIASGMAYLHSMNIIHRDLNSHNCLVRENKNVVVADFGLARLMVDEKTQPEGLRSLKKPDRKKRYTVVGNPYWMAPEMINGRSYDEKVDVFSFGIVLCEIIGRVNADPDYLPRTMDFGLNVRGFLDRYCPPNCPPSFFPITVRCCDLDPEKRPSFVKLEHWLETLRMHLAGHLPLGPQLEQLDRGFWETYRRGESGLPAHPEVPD
Chain of Calcium/calmodulin-dependent protein kinase type II subunit alpha (Q9UQM7 whole entry): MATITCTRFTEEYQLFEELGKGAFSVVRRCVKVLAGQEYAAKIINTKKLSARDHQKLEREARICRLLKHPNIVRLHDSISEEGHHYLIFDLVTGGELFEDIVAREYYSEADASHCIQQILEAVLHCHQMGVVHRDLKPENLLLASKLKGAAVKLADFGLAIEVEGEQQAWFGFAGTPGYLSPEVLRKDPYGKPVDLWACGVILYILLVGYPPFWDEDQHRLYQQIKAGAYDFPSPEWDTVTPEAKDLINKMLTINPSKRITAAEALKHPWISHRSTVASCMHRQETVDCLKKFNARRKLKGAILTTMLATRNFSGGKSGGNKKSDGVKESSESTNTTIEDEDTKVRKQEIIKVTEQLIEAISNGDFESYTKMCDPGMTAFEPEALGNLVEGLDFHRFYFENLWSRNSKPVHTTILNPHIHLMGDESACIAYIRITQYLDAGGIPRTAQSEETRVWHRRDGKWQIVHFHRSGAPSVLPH

In the case of `CCc1nc2sc3c(c2c2nnc(SC)n12)CCC(C)C3` (centres undefined), the IC50 in [1] and in [2] was > 99 µM (inactive) throughout.
With `Nc1ncnc2nc3ccccc3n12`, the inhibitory constant (Ki) in assay [3] is 39.8 µM (active); in assay [4], > 79.4 µM (inactive); at Activin receptor type-1, > 79.4 µM (inactive); in assay [5], > 100 µM (inactive); in assay [6], > 79.4 µM (inactive); in assay [7], 20 µM (active). Further, the Ki in [8] is > 100 µM (inactive); on LIM domain kinase 1, 63.1 µM (active); in assay [9] it was > 79.4 µM (inactive); in [10] it was > 79.4 µM (inactive); in assay [11], 20 µM (active); at Aurora kinase B it was > 79.4 µM (inactive). Also, the Ki in assay [12] was > 79.4 µM (inactive); in [13] it was 7.94 µM (active); in assay [14] it was 39.8 µM (active); in [15], > 79.4 µM (inactive); in assay [16], > 79.4 µM (inactive).

The term Ki denotes a measure of affinity in units of concentration, obtained from inhibition or displacement.
